The values that follow come from publication PMC11500008, “Novel quinazolin-4-one based derivatives bearing 1,2,3-triazole and glycoside moieties as potential cytotoxic agents through dual EGFR and VEGFR-2 inhibitory activity” (Scientific Reports, 2024).

The subject of assay [1] is MCF-7 cell line. Kind of assay: MTT cytotoxicity assay, MCF-7. The assay is classed as cell-based. The conditions noted are these: Homo sapiens, MCF7; MCF-7 breast cancer cells; 48 h incubation; mean of three values; read-out: IC50 (mean±SD) MCF-7. An excerpt: (§1) The recently incorporated quinazolinone-based targets 1–4, 6–13 underwent evaluation for their cytotoxic effects with in vitro employing MTT technique, according to the procedure that has been published[48]–[50], utilizing human fibroblast-derived BJ-1 normal cell line, and human cancer liver HepG-2, breast MCF-7, and colon HCT-116 cell lines. These cell lines were purchased from Karolinska Center, Department of Oncology and Pathology, Karolinska Institute and Hospital, Stockholm, Sweden, There were further details in the supplemental file.
(§2) The cell lines were obtained from Karolinska Center, Department of Oncology and Pathology, Karolinska Institute and Hospital, Stockholm, Sweden as follows: human liver HepG-2, breast MCF-7, and colorectal HCT-116 cancer cell lines and human fibroblast-derived BJ-1 normal cell line. Exponentially, cells were placed in 10^4 cells/ well for 24 h, and then add fresh medium which containing different concentration of the tested sample. Serial two-fold dilution of the tested sample were added using a multichannel pipette. Moreover, all cells were cultivated at 37 °C, 5% CO2 and 95% humidity. Also, incubation of control cells occurred at 37 °C. However, after incubation for 24 h different concentrations of sample (25, 12.5, 6.25 and 3.125 µM) were added and continued the incubation for 48 h, then, add the crystal violet solution 1% to each well for 0.5 h to examine viable cells. Rinse the wells using water until no stain. After that, add 30% glacial acetic acid to all wells with shaking plates on Microplate reader (TECAN, Inc.) to measure the absorbance, using a test wavelength of 490 nm. Besides, compare the treated samples with the control cell. The cytotoxicity was estimated by IC50 in (μM), the concentration that inhibits 50% of growth of cancer cell.

In another assay the test system is Bax. As to the kind of experiment: Bax level in HCT-116 cells. The assay is classed as cell-based, human. An excerpt: (§3) The methods previously described for the appealing quinazolinone-1,2,3-triazole glycoside 13 was used to clearly show the levels of p53, Bax, Bcl-2, and in HCT-116 cells.
(§4) The levels of the apoptotic marker Bax and anti-apoptotic marker Bcl-2 were estimated using BIO RAD iScript TM One-Step RT-PCR kit with SYBR® Green. The procedure of the used kit was done according to the manufacturer’s instructions.

A further assay concerns HCT-116 cell line. As to the kind of experiment: MTT cytotoxicity assay, HCT-116. The assay is classed as cell-based. The conditions noted are these: Homo sapiens; HCT-116 colorectal cancer cells; 48 h incubation; mean of three values; read-out: IC50 (mean±SD) HCT-116.
From the text: as §1, §2

The subject of another assay is HepG-2 cell line. Kind of assay: MTT cytotoxicity assay, HepG-2. The assay is classed as cell-based. The note with it: Homo sapiens, HepG2; HepG-2 liver cancer cells; 48 h incubation; mean of three values; read-out: IC50 (mean±SD) HepG-2.
From the text: as §1, §2

In the next assay the test system is BJ-1 normal cell line. Kind of assay: MTT cytotoxicity assay, normal BJ-1 fibroblasts (safety profile). It is filed as cell-based. The conditions noted are these: Homo sapiens; BJ-1 normal fibroblast-derived cells; 48 h incubation; mean of three values; read-out: IC50 (mean±SD) BJ-1. As for the experimental part: […]. The safety profiles of all derivatives were assessed through cytotoxic evaluation using human fibroblast-derived BJ-1 normal cell lines. […].
as §1, §2

Another assay addresses VEGFR-2 (Homo sapiens, UniProt P35968). Kind of assay: In vitro VEGFR-2 inhibition assay (ELISA). The note with it: read-out: IC50 (mean ± SD) VEGFR-2; average of three values.
For assay [2], the system named is HCT-116 cells. As to the kind of experiment: Cell cycle analysis by flow cytometry (PI). The assay is classed as cell-based, human. The method, then: (§5) The most powerful cytotoxic derivative, quinazolinone-1,2,3-triazole glycoside 13, underwent 24-hour treatment at a dose of 5.40 µM to find out if it caused cell death by the apoptotic pathway in HCT-116 cells. Using annexin-V labeling, flow cytometry was employed to further analyze the cells (Figs. 4, 5 and 6).
(§6) The examination of apoptosis and the interpretation of the cell cycle were described[37] utilizing flow cytometry. HCT-116 cells were treated with quinacolinone-1,2,3-triazole glycoside 13 for a full day, and after that, the cells were cultured at 37 °C. There were more details added to supporting documentation .
(§7) Cell cycle analysis and apoptosis study were carried out using flow cytometry. HCT-116 cells were seeded at 8×10^4 and incubated at 37°C in 5% CO2 overnight. After treatment with the tested compound 10 for 24 h, cell pellets were collected and centrifuged (300 g, 5 min). For cell cycle analysis cell pellets were fixed with 70% ethanol on ice for 15 min and collected again. The pellets were incubated with propidium iodide (PI) staining solution at room temperature for 1 h and analyzed by a Gallios flow cytometer (Beckman Coulter, Brea, CA, USA). Apoptosis detection was carried out by FITC AnnexinV/PI commercial kit (Becton Dickenson, Franklin Lakes, NJ, USA) following the manufacturer protocol. The samples were analyzed by fluorescence-activated cell sorting (FACS) with a Gallios flow cytometer (Beckman Coulter, Brea, CA, USA) within 1 h after staining. Data were analyzed using Kaluza v 1.2 (Beckman Coulter).

Another assay addresses EGFR (Homo sapiens, UniProt P00533). Kind of assay: In vitro EGFR inhibition assay (Kinase-Glo luminescence).
In assay [3] the test system is HCT-116 cells. As to the kind of experiment: Apoptosis analysis by annexin V-FITC/PI flow cytometry. The note with it: 5.40 µM, 24 h. It is filed as cell-based, human. As for the experimental part: as §5, §6, §7
The subject of a further assay is p53. Kind of assay: p53 level in HCT-116 cells (ELISA). It is filed as cell-based, human. The method, then: as §3
Human p53 present in HCT-116 cells was determined; using Human p53 ELISA-Kit (CS0070 Sigma) read using spectrophotometer at 450 nm against untreated control cells (negative control) applying the standard protocols of the manufacturers. The samples or standard having human p53 bind to antibodies adsorbed to the microwells. Addition of biotin-conjugated was followed by incubation and addition of dispense of unbound biotin-conjugated streptavidin HRP. Then, the reaction was terminated by adding acid, and the absorbance was measured at 450 nm.

In a further assay the test system is Bcl-2. Kind of assay: Bcl-2 level in HCT-116 cells. The assay is classed as cell-based, human.
From the text: as §3, §4

The test system of assay [4] is MCF-7 cell line. On the set-up: method as in PMID 37453330. The note with it: cellular activity; read-out: IC50 against MCF-7 cell line; cited from earlier work.

Where “and” joins values, the source holds several entries; their conditions need not be identical. Equal entries are not always repeated. Where two headings read alike, the source gives them in different places.

Chain of EGFR (P00533 25-1210): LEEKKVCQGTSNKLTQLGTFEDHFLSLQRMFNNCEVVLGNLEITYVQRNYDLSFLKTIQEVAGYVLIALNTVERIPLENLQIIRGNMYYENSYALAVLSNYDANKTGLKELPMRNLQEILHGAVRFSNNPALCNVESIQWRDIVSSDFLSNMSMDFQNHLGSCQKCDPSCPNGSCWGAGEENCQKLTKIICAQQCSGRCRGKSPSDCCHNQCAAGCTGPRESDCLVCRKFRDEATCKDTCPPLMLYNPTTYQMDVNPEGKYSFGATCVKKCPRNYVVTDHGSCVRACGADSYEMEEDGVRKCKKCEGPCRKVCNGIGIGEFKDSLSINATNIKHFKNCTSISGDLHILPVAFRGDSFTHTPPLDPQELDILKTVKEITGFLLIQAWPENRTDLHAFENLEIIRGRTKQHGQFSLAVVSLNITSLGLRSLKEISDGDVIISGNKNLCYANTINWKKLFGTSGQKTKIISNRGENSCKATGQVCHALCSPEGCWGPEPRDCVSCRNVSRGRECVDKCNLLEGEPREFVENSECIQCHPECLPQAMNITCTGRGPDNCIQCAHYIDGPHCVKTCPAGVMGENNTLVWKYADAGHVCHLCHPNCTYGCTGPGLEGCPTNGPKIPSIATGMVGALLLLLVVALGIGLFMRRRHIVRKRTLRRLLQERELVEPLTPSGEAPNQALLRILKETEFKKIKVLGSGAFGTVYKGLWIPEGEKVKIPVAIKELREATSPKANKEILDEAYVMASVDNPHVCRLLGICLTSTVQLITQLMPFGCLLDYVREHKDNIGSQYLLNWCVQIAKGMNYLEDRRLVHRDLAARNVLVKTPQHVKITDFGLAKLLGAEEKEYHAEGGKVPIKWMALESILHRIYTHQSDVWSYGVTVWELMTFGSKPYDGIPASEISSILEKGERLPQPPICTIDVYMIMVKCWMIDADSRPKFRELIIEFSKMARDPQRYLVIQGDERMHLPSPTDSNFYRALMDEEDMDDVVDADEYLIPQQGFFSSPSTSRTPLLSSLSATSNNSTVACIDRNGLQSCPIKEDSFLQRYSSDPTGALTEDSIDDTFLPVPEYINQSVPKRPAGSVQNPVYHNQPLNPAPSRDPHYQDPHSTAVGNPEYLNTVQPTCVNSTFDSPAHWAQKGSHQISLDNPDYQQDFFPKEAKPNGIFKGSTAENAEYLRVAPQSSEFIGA
Chain of VEGFR-2 (P35968 20-1356): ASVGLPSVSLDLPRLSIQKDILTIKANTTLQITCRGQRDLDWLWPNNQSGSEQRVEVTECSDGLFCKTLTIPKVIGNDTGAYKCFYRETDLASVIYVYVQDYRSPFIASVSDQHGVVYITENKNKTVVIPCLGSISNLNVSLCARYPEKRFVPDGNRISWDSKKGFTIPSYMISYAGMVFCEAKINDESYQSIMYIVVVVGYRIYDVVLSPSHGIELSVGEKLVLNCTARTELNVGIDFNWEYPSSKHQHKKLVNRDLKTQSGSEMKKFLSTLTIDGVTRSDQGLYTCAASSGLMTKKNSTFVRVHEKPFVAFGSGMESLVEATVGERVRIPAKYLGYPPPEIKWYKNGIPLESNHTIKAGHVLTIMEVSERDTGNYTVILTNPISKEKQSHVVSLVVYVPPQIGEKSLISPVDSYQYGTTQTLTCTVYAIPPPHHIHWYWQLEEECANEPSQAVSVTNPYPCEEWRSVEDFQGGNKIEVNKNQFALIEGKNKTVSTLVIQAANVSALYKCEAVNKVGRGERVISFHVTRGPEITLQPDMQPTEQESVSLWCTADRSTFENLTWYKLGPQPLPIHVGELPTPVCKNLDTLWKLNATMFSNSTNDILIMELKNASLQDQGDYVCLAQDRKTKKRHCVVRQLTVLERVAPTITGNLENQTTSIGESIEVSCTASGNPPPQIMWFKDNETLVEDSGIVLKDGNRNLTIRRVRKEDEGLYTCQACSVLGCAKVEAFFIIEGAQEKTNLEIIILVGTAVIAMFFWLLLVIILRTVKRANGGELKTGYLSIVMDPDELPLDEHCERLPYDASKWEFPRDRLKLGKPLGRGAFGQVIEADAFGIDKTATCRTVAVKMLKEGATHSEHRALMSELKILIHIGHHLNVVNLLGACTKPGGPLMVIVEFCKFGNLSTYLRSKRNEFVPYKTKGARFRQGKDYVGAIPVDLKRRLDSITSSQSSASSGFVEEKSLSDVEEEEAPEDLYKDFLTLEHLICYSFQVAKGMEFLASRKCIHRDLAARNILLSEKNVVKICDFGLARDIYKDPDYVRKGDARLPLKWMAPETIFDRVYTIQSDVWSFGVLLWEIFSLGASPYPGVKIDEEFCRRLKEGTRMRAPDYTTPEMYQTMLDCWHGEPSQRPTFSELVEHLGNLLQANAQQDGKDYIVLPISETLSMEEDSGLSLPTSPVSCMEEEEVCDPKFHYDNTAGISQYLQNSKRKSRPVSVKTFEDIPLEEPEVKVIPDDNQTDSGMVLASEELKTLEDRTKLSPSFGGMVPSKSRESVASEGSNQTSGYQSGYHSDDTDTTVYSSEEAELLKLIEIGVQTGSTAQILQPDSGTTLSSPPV

For the compound `Cn1c(SCc2cn([C@@H]3OC[C@@H](O)[C@H](O)[C@H]3O)nn2)nc2ccccc2c1=O` [Compound 13, 2-(((1-[β-D-Xylopyranosyl]-1 H-1,2,3-triazol-4-yl)methyl)thio)-3-methylquinazolin-4(3 H)-one], the IC50 in the assay on MCF-7 cell line [1] stood at 7.9 ± 0.3 µM; in the assay with HCT-116 cell line, 5.4 µM; with HepG-2 cell line it was 18.2 ± 2.2 µM; in the assay with BJ-1 normal cell line, 23.5 ± 2.3 µM; at VEGFR-2 it was 3.2 ± 0.15 µM; against EGFR it was 0.31 ± 0.06 µM. In the assay with Bax (24-hour treatment at 5.40 µM, control 4.53), this compound gave a Bax/Bcl-2 of 72.83. For the same compound, the Bax in the assay on Bax (24-hour treatment at IC50 5.40 µM, control 33.85) is 229.40 pg/mL and 229.40 ± 1.62 pg/mL. The “improvement in Bax values versus untreated control” value with Bax (24 h, 5.40 µM) is listed as 6.8 fold. For the same compound, the “stage of cell cycle arrest” value in the assay with HCT-116 cells [2] is “G1 stage”. Besides, the “%G2/M” value in the assay on HCT-116 cells [2] (5.40 µM, 24-hour treatment (Table S2 title: 48 h), control 13.24) was 9.43%. The “%S” value in the assay with HCT-116 cells [2] (5.40 µM, 24-hour treatment (Table S2 title: 48 h), control 32.81) was 22.46%. Besides, the “%G0-G1” value in the assay on HCT-116 cells [2] (5.40 µM, 24-hour treatment (Table S2 title: 48 h), control 53.95) is 68.11%. Besides, the “Apoptosis Late” value in the assay with HCT-116 cells [3] (DMSO control 0.14) amounted to 25.36%. Moreover, in the assay with HCT-116 cells [3] (DMSO control 0.55), the “Apoptosis Early” value was 7.42%. This compound also gave a Necrosis with HCT-116 cells [3] (DMSO control 1.35) of 3.53%. For the same compound, the P53 in the assay on p53 (24-hour treatment at IC50 5.40 µM, control 139.65) is 885.72 pg/mL and 885.72 ± 1.49 pg/mL. Also, the “enhancement of p53 protein levels versus control” value with p53 (24 h, 5.40 µM) is listed as 6.3 times. Also, in the assay on Bcl-2 (24-hour treatment at IC50 5.40 µM, control 7.48), the Bcl-2 is 3.15 ng/mL and 3.15 ± 0.22 ng/mL. In the assay with Bcl-2 (24 h, 5.40 µM), the “reduction of Bcl-2 protein levels versus control” value was about 2.4 times.

`COc1ccc(Cc2nnc(COc3ncnc4ccccc34)o2)cc1OC` [IV]: the IC50 in the assay on MCF-7 cell line [4] was 0.23 µM.
